Calls of active or inactive are those of the source. No cut-off for these calls is given here.

This is an account of results in ChEMBL document CHEMBL2086307, “Design, synthesis and identification of a new class of triarylmethyl amine compounds as inhibitors of apolipoprotein E production” (2012).

The test system of the first experiment is CCF-STTG1. Nature of the experiment: Inhibition of apolipoprotein E production in human CCF-STTG1 cells at 10 uM after 24 hrs by ELISA relative to vehicle-treated control. In kind it is functional.
Conditions: not given
The inhibition is the drop in the measured response relative to a control, in per cent. With `COc1ccc(C(c2ccccc2)(c2ccccc2)N(C)C)cc1`, the inhibition result is “Active”.
For the compound `c1ccc(C(c2ccccc2)(c2ccc3ccccc3c2)N2CCCCC2)cc1`, the inhibition result was “Active”.
On the same count and under the same terms, the entry for `CCN(CC)C(c1ccccc1)(c1ccccc1)c1ccccc1` is “Active”; for `CC(NC(c1ccccc1)(c1ccccc1)c1ccccc1)c1ccccc1` (racemic) it is “Active”.
The same measure, in the same setting: the entry for `COc1ccc(C(NC2CCCCC2)(c2ccccc2)c2ccccc2)cc1` is “Active”; for `CN(C)C(c1ccccc1)(c1ccccc1)c1ccc2ccccc2c1` it is “Active”; for `CCCCN(CCCC)C(c1ccccc1)(c1ccccc1)c1ccc2ccccc2c1` it is “Active”.
On the same count and under the same terms, the entry for `c1ccc(C(NC2CCCCC2)(c2ccccc2)c2ccccc2)cc1` is “Active”; for `CN(C)C(c1ccccc1)(c1ccccc1)c1ccccc1` it is “Active”.
Turning to `c1ccc(CN(Cc2ccccc2)C(c2ccccc2)(c2ccccc2)c2ccccc2)cc1`, the inhibition entry is “Active”.
Consider `CCC(C)NC(c1ccccc1)(c1ccccc1)c1ccc(OC)cc1` (stereo unspecified), for which the inhibition entry is “Active”.
On to `CCC(C)NC(c1ccccc1)(c1ccccc1)c1ccccc1` (stereo unspecified), for which the inhibition entry was “Active”.
For `O=C(c1ccccc1)c1ccc(O)cc1`, the inhibition result was “Active”.
Consider `c1ccc(C(c2ccccc2)(c2ccccc2)N2CCNCC2)cc1`, for which the inhibition result is “Active”.
The same measure, in the same setting: the entry for `COc1ccc(C(c2ccccc2)(c2ccccc2)N2CCCC2)cc1` is “Active”; for `COc1ccc(C(c2ccccc2)(c2ccccc2)N2CCCCC2)cc1` it is “Active”; for `O=C(c1ccccc1)C(O)c1ccccc1` (stereo unspecified) it is “Active”.
As to `c1ccc(C(c2ccccc2)(c2ccccc2)N2CCOCC2)cc1`, the inhibition result is “Active”.
Regarding `O=C(c1ccccc1)c1ccc(OCc2ccccc2)cc1`, the inhibition entry was “Active”.
As for `CCN(CC)C(c1ccccc1)(c1ccccc1)c1ccc(OC)cc1`, the inhibition result was “Active”.
`c1ccc(C(NC2CCCCC2)(c2ccccc2)c2ccc3ccccc3c2)cc1`: the inhibition entry is “Active”.
The same measure, in the same setting: for `COc1ccc(C(c2ccccc2)(c2ccccc2)N2CCNCC2)cc1` the value was “Active”; for `COc1ccc(C(c2ccccc2)(c2ccccc2)N2CCOCC2)cc1`, “Active”.
The same measure, in the same setting: for `COc1ccc(C(NCc2ccccc2)(c2ccccc2)c2ccccc2)cc1` the value was “Active”.
For the compound `c1ccc(NC(c2ccccc2)(c2ccccc2)c2ccccc2)cc1`, the inhibition entry is “Active”.
Turning to `c1ccc(C(c2ccccc2)(c2ccccc2)N2CCCC2)cc1`, the inhibition entry is “Active”.
The same measure, in the same setting: the entry for `CCN(CC)C(c1ccccc1)(c1ccccc1)c1ccc2ccccc2c1` is “Active”.
Still for that read-out and setting: for `c1ccc(C(c2ccccc2)(c2ccccc2)N2CCCCC2)cc1` the value was “Active”; for `COc1ccc(C(NCC(C)C)(c2ccccc2)c2ccccc2)cc1`, “Active”; for `CCCCN(CCCC)C(c1ccccc1)(c1ccccc1)c1ccccc1`, “Active”.
Regarding `O=C(c1ccccc1)c1ccccc1`, the inhibition entry was “Active”.
For the compound `c1ccc(CNC(c2ccccc2)(c2ccccc2)c2ccccc2)cc1`, the inhibition entry was “Active”.
The same measure, in the same setting: for `COc1ccc(C(Nc2ccccc2)(c2ccccc2)c2ccccc2)cc1` the value was “Active”; for `CC(NC(c1ccccc1)(c1ccccc1)c1ccc2ccccc2c1)c1ccccc1` (racemic), “Active”.
The same measure, in the same setting: for `CCCCN(CCCC)C(c1ccccc1)(c1ccccc1)c1ccc(OC)cc1` the value was “Active”; for `CC(C)CNC(c1ccccc1)(c1ccccc1)c1ccccc1`, “Active”.

The same experiment, now with this note: CCF-STTG1, 24 h.
`CC(C)CNC(c1ccccc1)(c1ccccc1)c1ccc2ccccc2c1` returned an inhibition at 10 µM of 50%.
Same read-out and setting: the figure for `CCC(C)NC(c1ccccc1)(c1ccccc1)c1ccc2ccccc2c1` (stereo unspecified) is 66%; for `c1ccc(C(c2ccccc2)(c2ccc3ccccc3c2)N2CCOCC2)cc1` it is 49%; for `c1ccc(C(c2ccccc2)(c2ccc3ccccc3c2)N2CCCC2)cc1` it is 46%.
Same read-out and setting: for `c1ccc(C(NCC2CCCCC2)(c2ccccc2)c2ccccc2)cc1` the value was 51%.
